Consider 73 molecules from the RepoRT retention time repository.

This data set is described as follows: Waters SunFire C18, 150 × 2.1 mm, 3.5 µm, 25 °C, 0.25 mL/min, estimated dead time 1.3 min; A: water + 0.1% formic acid; B: methanol; gradient (min/%B) 0/5 30/100. The note with it: stereoisomer not certain.

Molecules are shown by their SMILES.

As for `CC=C1CN(C)C2Cc3c([nH]c4ccccc34)C(c3cc4[nH]c5c(c4cc3OC)CCN3CC4CC(CC)C3C5(C(=O)OC)C4)CC1C2C(=O)OC` (stereo not drawn), the LC retention time is 17.5 min.
As to `CCC1NC2CC3(C(=O)N(OC)c4cc(OC)ccc43)C3CC1C2CO3` (stereo not drawn), the LC retention time was 16.3 min.
As for `CC=C1C2CC[N+]3([O-])CCC4(C(=C2C(=O)OC)Nc2ccccc24)C13` (stereo not drawn), the LC retention time was 15.3 min.
The value for `CC=C1CN(C)C2Cc3c([nH]c4ccccc34)C(c3ccc4c(CCN)c[nH]c4c3)CC1C2C(=O)OC` (stereo not drawn) was 12.6 min; that for `CCC1CN(C)C2Cc3c([nH]c4ccccc34)C(O)(c3cc4c5c([nH]c4cc3OC)C3(C(=O)OC)CC4CC(CC)C3N(CC5)C4)CC1C2C(=O)OC` (stereo not drawn) was 16.3 min.
`CCC1CN(C)C2Cc3c([nH]c4ccccc34)C(c3cc4c5c([nH]c4cc3OC)C3(C(=O)OC)CC4CC(CC)C3N(CC5)C4=O)CC1C2C(=O)OC` (stereo not drawn): the LC retention time is 22.6 min.
Regarding `CC=C1CN2C3CC45c6ccccc6NC4(O3)C2CC1C5(COC(C)=O)C(=O)OC` (stereo not drawn), the LC retention time was 17.3 min.
The value for `CCC12C=CCN3CCC4(C(=C(C(=O)OC)C1)Nc1cc(O)c(C5C=CC6(CC)CC(C(=O)OC)=C7Nc8c(O)cccc8C78CCN5C68)cc14)C32` (stereo not drawn) was 16.7 min; that for `CC=C1CNC2Cc3c([nH]c4ccccc34)C(=O)CC1C2C(=O)OC` (stereo not drawn) was 13.4 min.
Turning to `COC(=O)C1=C2Nc3ccccc3C23CCN2CC(C(C)O)C1CC23` (stereo not drawn), the LC retention time was 10.8 min.
The value for `C=CC1CN2CCc3c([nH]c4ccccc34)C2CC1C(=COC)C(=O)OC` (stereo not drawn) was 16.7 min; that for `CCC12CCCN3C(=O)C=C(c4ccccc4NC(=O)CC1)C32O` (stereo not drawn) was 18.1 min; that for `CCC1CC2CC3c4[nH]c5ccc(OC)cc5c4CCN(C2)C13` (stereo not drawn) was 13.6 min.
Turning to `CC=C1C[n+]2ccc3c([nH]c4ccccc43)c2CC1C1=CN2c3ccccc3C34CCN5CC(=CC)C(CC53)C(C1O)C24` (stereo not drawn), the LC retention time is 15.2 min.
`CC=C1CN(C)CC2Cc3c([nH]c4ccccc34)C(=O)CC12` (stereo not drawn): the LC retention time was 14.3 min.
Take `COC(=O)C1CC23CCCN4CCC5(c6ccccc6N(C)C15CC2)C43` (stereo not drawn): the LC retention time is 17.2 min.
Turning to `CC=C1CN2C3CC45c6ccccc6N(C)C4C2CC1C3C5OC(=O)c1cc(OC)c(OC)c(OC)c1` (stereo not drawn), the LC retention time was 22.6 min.
Take `COC(=O)C1=C2Nc3ccccc3C23CCN2CC4(CC5CC67CCOC6CCN6CCC8(c9cccc(OC)c9N(C4)C58O)C67)C4OCCC4(C1)C23` (stereo not drawn): the LC retention time was 23.3 min.
For `O=C1CC(O)C2C3CC4N(CCC45c4ccccc4N1C25)CC3=CCO` (stereo not drawn), the LC retention time is 10.1 min.
The value for `CCC1CN(C)C2Cc3c([nH]c4ccccc34)C(c3c(OC)ccc4c5c([nH]c34)C3([C-]=[O+]OC)CC4CC(CC)C3N(CC5)C4O)CC1C2C(=O)OC` (stereo not drawn) was 15.1 min; that for `COC(=O)C1CC23CCCN4CCC5(c6cc(Cc7ccc8c(c7)C79CCN%10CCCC%11(CCC7(C(C(=O)OC)C%11)N8C)C%109)ccc6N(C)C15CC2)C43` (stereo not drawn) was 19.5 min.
As for `OC1OCC=C2CN3CCC45c6ccccc6NC4C1C2CC35` (stereo not drawn), the figure is 9.62 min.
As to `COc1ccc2c(c1)N1C(=O)CC3OCC=C4CN5CCC26C5CC4C3C16` (stereo not drawn), the LC retention time is 16.8 min.
Consider `CC=C1C[N+]2(C)CCc3c([nH]c4ccccc34)C2CC1Cc1nccc2c1[nH]c1ccccc12` (stereo not drawn), for which the LC retention time is 15.5 min.
The value for `CC=C1CN2C3CC1C1(C(=O)OC)C2CC2(c4ccccc4NC32)C1O` (stereo not drawn) was 14.9 min; that for `CCC12CC(C(=O)OC)=C3Nc4ccccc4C34CCN(C(c3ccc5c(c3)C3CCN6CC7OC7C7(CC)CCC3(N5)C67)C3OC31)C42` (stereo not drawn) was 16 min.
The value for `CCC1CN2CCc3c([nH]c4ccccc34)C2CC1C(=COC)C(=O)OC` (stereo not drawn) was 16.8 min; that for `CC=C1C[N+]2(C)CCC34C(=C(C=O)C1CC32)Nc1ccccc14` (stereo not drawn) was 11.3 min.
Consider `CCC12CC34CC(C(=O)OC)=C5Nc6ccccc6C56CCN3C1C1CC3(CC)C5OC5CN5CCC7(c8ccccc8N(C64)C17O2)C53` (stereo not drawn), for which the LC retention time is 25.8 min.
Consider `C=CC(CO)C1CCN2CCc3c([nH]c4ccccc34)C2C1` (stereo not drawn), for which the LC retention time was 18.5 min.
Consider `CCC12CCCN(CCc3c([nH]c4ccccc34)CC1)C2` (stereo not drawn), for which the LC retention time was 15.1 min.
For `COC(=O)C1C2CC3c4[nH]c5cc(OC)ccc5c4CCN3CC2CC(OC(=O)c2cc(OC)c(OC)c(OC)c2)C1OC` (stereo not drawn), the LC retention time is 21.9 min.
With `CCC1CN2CCC34c5ccccc5NC3C(CO)C1CC24` (stereo not drawn), the LC retention time is 10.4 min.
As for `COC(=O)C1C2CC3c4[nH]c5cc(OC)ccc5c4CCN3CC2CC(O)C1OC` (stereo not drawn), the figure is 16.1 min; as for `CCC12CCCN3CCc4c(n(c5ccccc45)C(O)(C(=O)OC)C1)C32` (stereo not drawn), 20 min.
As for `CCC1=CC2CN3CCc4c([nH]c5ccccc45)C(C(=O)OC)(C2)C13` (stereo not drawn), the figure is 16.1 min; as for `CCC1CN2CCc3c([nH]c4ccccc34)C2CC1CC1c2[nH]c3ccccc3c2CCN1C` (stereo not drawn), 14.7 min; as for `COC(=O)C1(COC(=O)C=Cc2ccccc2)C2CC(N(C)CC23OC3C)C23Nc4ccccc4C21CC(=O)O3` (stereo not drawn), 29.9 min.
For `Cc1[nH]ccc2c(C)c3nc4ccccc4c3cc12`, the LC retention time was 21.5 min.
The value for `CC=C1CN(C)C2Cc3c([nH]c4ccccc34)C(=O)CC1C2C(=O)OC` (stereo not drawn) was 15.3 min; that for `COC(=O)C1CC23CCC[N+]4([O-])CCC5(c6ccccc6N(C(=O)OC)C15CC2)C34` (stereo not drawn) was 17.2 min.
Take `CCC12CCCN3CCc4c(n(c5ccccc45)C(c4ccc5c(c4)C46CCN7CCCC8(CCC4(C(C(=O)OC)C8)N5C)C76)C1)C32` (stereo not drawn): the LC retention time is 18.7 min.
In the case of `CC=C1CN2CCc3c([nH]c4ccccc34)C2CC1C(C=O)C(=O)OC` (stereo not drawn), the LC retention time is 18.3 min.
As for `CC=C1CN2CCC34CN5c6c(cccc6C36C2CC1C(C(=O)OC)N6c1ccccc14)C12CCN3CCCC4(CCC51C4C)C32` (stereo not drawn), the LC retention time is 15 min.
Take `CCC1CN2CCc3c([nH]c4ccccc34)C2CC1CC1NCCc2c1[nH]c1ccccc21` (stereo not drawn): the LC retention time is 16.6 min.
As for `CN1CCC23C(=O)CC4C(=CCOC5CC(=O)N(c6c(O)cccc62)C3C54)C1` (stereo not drawn), the figure is 13.4 min; as for `CCC1(O)CC23CC4N(CCC45C(=C2C(=O)OC)Nc2ccccc25)C13` (stereo not drawn), 14.8 min.
For `CC=C1CN2CCC34CC5C6CC7c8c(c9ccccc9n8C)CC(C6COC5(C)OC35C2CC1C(C(=O)OC)N5c1ccccc14)N7C` (stereo not drawn), the LC retention time was 17.4 min.
Turning to `CCC1(O)CC2CN(CCc3c([nH]c4ccccc34)C(C(=O)OC)(c3cc4c(cc3OC)N(C)C3C(O)(C(=O)OC)C(OC(C)=O)C5(CC)C=CCN6CCC43C65)C2)C1` (stereo not drawn), the LC retention time was 18.6 min.
The value for `C=CC1CN2CCc3c([nH]c4cc(O)ccc34)C2CC1CC1c2[nH]c3ccccc3c2CCN1C` (stereo not drawn) was 13.3 min.
The value for `CC=C1CN2C3CC1C(C(=O)OC)C2Cc1c3[nH]c2ccccc12` (stereo not drawn) was 16.2 min.
As for `CC=C1C[n+]2ccc3c([nH]c4ccccc43)c2CC1C(C(=O)OC)C1OCC2C3CC4N(CCC45c4ccccc4N1C25)CC3CC` (stereo not drawn), the figure is 15.8 min; as for `O=C1CC2OCC=C3CN4CCC56c7ccccc7N1C5C2C3CC46O` (stereo not drawn), 13.3 min.
As for `CCC1CN2CCC34C5=C(CC6(CC7CC(CC)N8CCC9(C6=Nc6ccccc69)C78)CN5c5ccccc53)C1CC24` (stereo not drawn), the LC retention time was 16.3 min.
As for `C=CC1CN2CCc3c([nH]c4ccccc34)C2CC1CC1c2[nH]c3ccccc3c2CCN1C` (stereo not drawn), the figure is 14.8 min.
The value for `CCC1=C(CC(=O)OC)C(OC)(c2nccc3c2[nH]c2ccccc23)OC1=O` (stereo not drawn) was 27 min.
For `CC=C1CN2C3CC1C1(C(=O)OC)C2CC2(c4cc(O)ccc4N(C)C32)C1OC(=O)c1cc(OC)c(OC)c(OC)c1` (stereo not drawn), the LC retention time was 15.8 min.
On to `CC1OC=C2C(=O)N3CCc4c([nH]c5ccccc45)C3CC2C1C=O` (stereo not drawn), for which the LC retention time is 27.3 min.
As for `CC=C1CN(C)C2Cc3c([nH]c4ccccc34)C(c3ccc4c5c([nH]c4c3)C3CC4CC(CC)C3N(CC5)C4)CC1C2C(=O)OC` (stereo not drawn), the figure is 15.3 min; as for `C=Cc1cncc2c(=O)n3c(cc12)-c1[nH]c2ccccc2c1CC3`, 18.3 min; as for `C=CC1CN2CCc3c([nH]c4ccccc34)C2CC1CCO` (stereo not drawn), 13.7 min.
As for `CC=C1CN2CCC34c5ccccc5N5C(C(=O)OC)C1CC2C53OC(=O)c1c4ccc(O)c1O` (stereo not drawn), the figure is 19.6 min; as for `CCC1=CN2CCC3=c4ccccc4=NC3=C2C=C1`, 14.4 min; as for `CC=C(C=O)C1CC2c3c(c4ccccc4n3C(O)C1)CCN2C` (stereo not drawn), 16.1 min.
The value for `CC=C1CN2C3CC1C(C1OCC4C5CC6N(CCC67c6ccccc6N1C47)CC5CC)C2Cc1c3[nH]c2ccccc12` (stereo not drawn) was 13.8 min; that for `COC(=O)C1CC23CCCN4CCC5(c6cc(Cc7ccc8c(c7)C79CCN%10CCCC%11(CCC7(N8)C(C(=O)O)C%11)C%109)ccc6N(C)C15CC2)C43` (stereo not drawn) was 18 min; that for `COc1cc2c(cc1OC)C13CCN(C)CC4=CCOC5CC(=O)N2C1C5C4CC3=O` (stereo not drawn) was 13.1 min.
On to `COC(=O)C1CC23C=CC(=O)N2CCC2(C(=O)OC)c4ccccc4N(C(=O)OC)C12CC3` (stereo not drawn), for which the LC retention time is 25.1 min.
As for `CC=C1CN(C)C2Cc3c(n(C)c4ccccc34)C(=O)CC1C2C(=O)OC` (stereo not drawn), the figure is 16.3 min.
Regarding `CC=C1CN2C3CC1C1(C(=O)OC)C2CC2(c4ccccc4N(C)C32)C1O` (stereo not drawn), the LC retention time is 12 min.
The value for `COC(=O)N1c2ccccc2C23CCN4C(=O)C=CC45CCC12C(C5)C(=O)O3` (stereo not drawn) was 24.1 min.
In the case of `C=CC1CN2CCc3c([nH]c4ccc(O)cc34)C2CC1CC1c2[nH]c3ccccc3c2CCN1C` (stereo not drawn), the LC retention time is 13.6 min.
As for `CC=C1CN(C)CCC23C(=O)CC1C1COC(OC)C(=O)N(c4ccccc42)C13` (stereo not drawn), the figure is 16 min.
